In data set [1] the target is Muscarinic acetylcholine receptor M1 and M3 (Homo sapiens) (UniProt P20309+P11229). Put plainly: Selectivity ratio of Ki for human muscarinic M1 receptor expressed in CHO-K1 cells to Ki for human muscarinic M3 receptor expressed in CHO-K1 cells. The class given is cell-based.
Data set [2] in a line: Lipophilicity, log P of compound at pH 7.4 by HPLC analysis. The data set is classed as physicochemical. As to conditions: buffer.
The target of data set [3] is T1, Muscarinic acetylcholine receptor M1 (Homo sapiens, UniProt P11229).
T1 sequence (P11229 whole entry): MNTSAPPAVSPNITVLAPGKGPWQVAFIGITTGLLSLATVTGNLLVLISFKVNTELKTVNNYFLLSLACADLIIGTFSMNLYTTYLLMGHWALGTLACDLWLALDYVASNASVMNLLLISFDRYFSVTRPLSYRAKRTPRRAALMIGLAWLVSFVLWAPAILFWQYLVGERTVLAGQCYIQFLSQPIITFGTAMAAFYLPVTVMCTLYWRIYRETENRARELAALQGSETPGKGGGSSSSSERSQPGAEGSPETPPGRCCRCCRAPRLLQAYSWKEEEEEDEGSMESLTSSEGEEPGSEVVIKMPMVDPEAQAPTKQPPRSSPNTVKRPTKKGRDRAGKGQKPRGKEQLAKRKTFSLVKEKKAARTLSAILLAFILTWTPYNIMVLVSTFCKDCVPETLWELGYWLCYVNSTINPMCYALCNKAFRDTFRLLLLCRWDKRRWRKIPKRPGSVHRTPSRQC
Kind of data set: Displacement of [3H]NMS from human muscarinic M1 receptor expressed in CHO-K1 cell membrane assessed as inhibition constant incubated for 90 mins by competitive radioligand binding assay. The data set is classed as cell membranes. In general terms: Displacement assays read how much labelled ligand stays bound in the presence of the test substance.

Data set [4] has as its target Muscarinic acetylcholine receptors; M2 & M3 (Homo sapiens) (UniProt P20309+P08172). Kind of data set: Selectivity ratio of Ki for human muscarinic M2 receptor expressed in CHO-K1 cells to Ki for human muscarinic M3 receptor expressed in CHO-K1 cells. The data set is classed as cell-based.
The species named for data set [5] is Homo sapiens. Kind of data set: Selectivity ratio of Ki for human muscarinic M4 receptor expressed in CHO-K1 cells to Ki for human muscarinic M3 receptor expressed in CHO-K1 cells. The class given is cell-based.
The target of data set [6] is T2, Muscarinic acetylcholine receptor M5 (Homo sapiens, UniProt P08912).
T2 sequence (P08912 whole entry): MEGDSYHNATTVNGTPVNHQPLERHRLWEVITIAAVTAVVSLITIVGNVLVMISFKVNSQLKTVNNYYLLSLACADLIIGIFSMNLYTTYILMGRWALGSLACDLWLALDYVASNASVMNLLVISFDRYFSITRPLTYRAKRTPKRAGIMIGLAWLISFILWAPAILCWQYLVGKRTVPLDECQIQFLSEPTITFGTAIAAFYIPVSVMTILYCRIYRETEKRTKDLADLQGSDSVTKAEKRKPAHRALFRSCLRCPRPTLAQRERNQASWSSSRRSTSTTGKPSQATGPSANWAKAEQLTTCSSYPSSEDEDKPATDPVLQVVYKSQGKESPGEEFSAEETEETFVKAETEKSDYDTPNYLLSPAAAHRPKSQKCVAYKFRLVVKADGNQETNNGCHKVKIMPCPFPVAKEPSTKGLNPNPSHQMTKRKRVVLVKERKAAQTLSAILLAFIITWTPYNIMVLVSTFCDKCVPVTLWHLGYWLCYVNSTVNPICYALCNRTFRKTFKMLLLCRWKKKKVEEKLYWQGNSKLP
Kind of data set: Displacement of [3H]NMS from human muscarinic M5 receptor expressed in CHO-K1 cell membrane assessed as inhibition constant incubated for 90 mins by competitive radioligand binding assay. The class given is cell membranes.

Data set [7] addresses T3, Muscarinic acetylcholine receptor M2 (Homo sapiens, UniProt P08172).
T3 sequence (P08172 whole entry): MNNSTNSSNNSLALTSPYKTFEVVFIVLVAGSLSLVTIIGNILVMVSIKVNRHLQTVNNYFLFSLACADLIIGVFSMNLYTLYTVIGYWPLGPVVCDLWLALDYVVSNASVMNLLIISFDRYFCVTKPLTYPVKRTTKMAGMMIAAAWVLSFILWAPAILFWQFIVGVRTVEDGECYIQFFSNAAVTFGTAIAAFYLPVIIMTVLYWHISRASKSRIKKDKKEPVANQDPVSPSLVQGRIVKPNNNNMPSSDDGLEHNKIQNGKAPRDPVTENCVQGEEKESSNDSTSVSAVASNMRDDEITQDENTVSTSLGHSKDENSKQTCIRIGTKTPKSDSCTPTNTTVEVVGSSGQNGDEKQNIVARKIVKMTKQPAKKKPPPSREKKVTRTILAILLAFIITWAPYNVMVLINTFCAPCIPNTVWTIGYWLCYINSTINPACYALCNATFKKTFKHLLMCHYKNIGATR
Put plainly: Displacement of [3H]NMS from human muscarinic M2 receptor expressed in CHO-K1 cell membrane assessed as inhibition constant incubated for 90 mins by competitive radioligand binding assay. The data set is classed as cell membranes.

For data set [8], the species on record is Homo sapiens. Put plainly: Selectivity ratio of Ki for human muscarinic M5 receptor expressed in CHO-K1 cells to Ki for human muscarinic M3 receptor expressed in CHO-K1 cells. The data set is classed as cell-based.
Data set [9] deals with Muscarinic acetylcholine receptor M3 (Homo sapiens, UniProt P20309). Put plainly: Displacement of [3H]NMS from human muscarinic M3 receptor expressed in CHO-K1 cell membrane assessed as inhibition constant incubated for 90 mins by competitive radioligand binding assay. The data set is classed as cell membranes.
Chain of Muscarinic acetylcholine receptor M3 (P20309 whole entry): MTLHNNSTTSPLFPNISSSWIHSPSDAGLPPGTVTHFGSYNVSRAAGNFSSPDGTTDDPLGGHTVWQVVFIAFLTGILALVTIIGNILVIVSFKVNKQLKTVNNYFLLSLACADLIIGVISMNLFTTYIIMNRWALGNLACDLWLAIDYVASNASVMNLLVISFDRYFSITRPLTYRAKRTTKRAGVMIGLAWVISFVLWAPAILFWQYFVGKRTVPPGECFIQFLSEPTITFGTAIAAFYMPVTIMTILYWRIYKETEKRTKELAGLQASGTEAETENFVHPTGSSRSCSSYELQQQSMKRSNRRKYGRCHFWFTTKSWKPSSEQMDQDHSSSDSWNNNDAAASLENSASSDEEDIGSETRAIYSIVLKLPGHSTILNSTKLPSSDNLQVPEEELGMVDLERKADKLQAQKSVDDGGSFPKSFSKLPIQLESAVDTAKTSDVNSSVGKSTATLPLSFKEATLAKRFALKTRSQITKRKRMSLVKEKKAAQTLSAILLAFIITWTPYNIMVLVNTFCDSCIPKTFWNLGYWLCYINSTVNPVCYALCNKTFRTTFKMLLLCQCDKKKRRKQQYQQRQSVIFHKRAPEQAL
A short description of data set [10]: Cytotoxicity against CHO-K1 cells expressing human muscarinic receptor M1 incubated for 72 hrs by MTT assay. The data set is classed as toxicity, cell-based. As to conditions: Chinese hamster (Cricetulus griseus). (Tetrazolium assays rely on reduction of a dye to a coloured formazan, in cell work by metabolically active cells.)
Data set [11] deals with T4, Muscarinic acetylcholine receptor M4 (Homo sapiens, UniProt P08173).
T4 sequence (P08173 whole entry): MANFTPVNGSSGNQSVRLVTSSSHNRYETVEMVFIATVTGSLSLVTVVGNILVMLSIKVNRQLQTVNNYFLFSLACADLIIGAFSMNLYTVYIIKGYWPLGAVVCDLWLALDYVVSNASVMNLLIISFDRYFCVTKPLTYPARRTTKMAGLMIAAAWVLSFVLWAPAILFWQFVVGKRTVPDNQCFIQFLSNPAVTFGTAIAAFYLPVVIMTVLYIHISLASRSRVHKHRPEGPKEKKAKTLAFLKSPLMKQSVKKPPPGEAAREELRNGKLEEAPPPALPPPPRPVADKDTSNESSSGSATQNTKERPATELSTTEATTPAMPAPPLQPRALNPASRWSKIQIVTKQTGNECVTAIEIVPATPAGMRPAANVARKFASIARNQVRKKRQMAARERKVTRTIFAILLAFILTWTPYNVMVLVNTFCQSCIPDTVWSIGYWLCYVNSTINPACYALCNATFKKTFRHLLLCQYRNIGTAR
Kind of data set: Displacement of [3H]NMS from human muscarinic M4 receptor expressed in CHO-K1 cell membrane assessed as inhibition constant incubated for 90 mins by competitive radioligand binding assay. The class given is cell membranes.

The species named for data set [12] is Homo sapiens. Put plainly: Selectivity ratio of Ki for human muscarinic M3 receptor expressed in CHO-K1 cells to Ki for human muscarinic M5 receptor expressed in CHO-K1 cells. The data set is classed as cell-based.
The target of data set [13] is T5, Muscarinic acetylcholine receptor M1 (Homo sapiens) (UniProt P11229).
T5 sequence (whole entry): T1 sequence (P11229 whole entry)
Put plainly: Agonist activity at human muscarinic M1 receptor expressed in CHO-K1 cell membrane upto 100 uM by fluorescence based assay. The data set is classed as functional, cell membranes.

The species named for data set [14] is Homo sapiens. Kind of data set: Selectivity ratio of Ki for human muscarinic M4 receptor expressed in CHO-K1 cells to Ki for human muscarinic M5 receptor expressed in CHO-K1 cells. The class given is cell-based.
In data set [15] the target is Muscarinic acetylcholine receptor M2 and M5 (Homo sapiens) (UniProt P08172+P08912). Kind of data set: Selectivity ratio of Ki for human muscarinic M2 receptor expressed in CHO-K1 cells to Ki for human muscarinic M5 receptor expressed in CHO-K1 cells. The data set is classed as cell-based.
Data set [16] is filed under the species Homo sapiens. Kind of data set: Selectivity ratio of Ki for human muscarinic M1 receptor expressed in CHO-K1 cells to Ki for human muscarinic M5 receptor expressed in CHO-K1 cells. The data set is classed as cell-based.
For data set [17], the target named is T5, Muscarinic acetylcholine receptor M1 (Homo sapiens). Put plainly: Antagonist activity at human muscarinic M1 receptor expressed in CHO-K1 cell membrane assessed as reduction in carbachol-induced ca2+ influx by fluorescence based assay. The class given is functional, cell membranes. As to conditions: filed as antagonist.

pKi: −log10 of the molar value. Activity calls are given as the source filed them. The calls are words filed in the database; no cut-off is given here. Where only a bound is given, the exact number is not on record here.

This is an account of results in ChEMBL document CHEMBL5634153, “Design, synthesis and preclinical evaluation of muscarine receptor antagonists via a scaffold-hopping approach” (Eur J Med Chem, 2023).

A word on the logP: it is the decadic logarithm of the partition coefficient of the neutral form, usually between octanol and water. Read a high logP as a more lipophilic compound. The pKi is −log10 of the Ki, conventionally taken in molar units. As usually defined, the IC50 is the concentration at which inhibition is half-maximal. A high value points to a need for much substance.

Chain of Muscarinic acetylcholine receptor M1 and M3 (Homo sapiens) (P20309 whole entry, looked up, one chain of several): as the sequence (P20309 whole entry) above
Chain of Muscarinic acetylcholine receptors; M2 & M3 (Homo sapiens) (P20309 whole entry, looked up, one chain of several): as the sequence (P20309 whole entry) above

Turning to `CN1[C@@H]2CC[C@H]1C[C@@H](Oc1nc3ccccc3n1-c1ccccc1)C2`, the Ratio Ki (in data set [1]; in [4]; in the data set filed under Homo sapiens [5]; in the data set filed under Homo sapiens [8]) was 2.5 each time. This compound also yielded a logP in [2] of 2.73. Further, the pKi in data set [3] is 7.00; in [6] it was under 6.00; in data set [7], 6.35; in [9], 7.34; in data set [11] it was 6.70. For the same compound, in data set [10], the IC50 at 72 h was at least 100000 nM.

In [2], `CN1CCC(Oc2nc3ccccc3n2-c2ccccc2)C1` (racemic) yielded a logP of 2.81. Also, the Ratio Ki was 4 in the data set filed under Homo sapiens [12], 4 in the data set listed under Homo sapiens [14], 18 in data set [15] and 4 in the data set listed under Homo sapiens [16]. The pKi was 7.29 in data set [3]; 7.85 in data set [6]; 6.59 in data set [7]; 7.22 in data set [9]; 7.19 in data set [11]. In addition, the outcome in [13] was inactive. In addition, the concentration for half-maximal inhibition (IC50) at 72 h in [10] is at least 100000 nM. Also, the Activity entry in data set [17] was “Dose-Dependent Effect”.
